This is an account of results in patent US4206116A, “Novel penicillins” (Bristol-Myers Company, priority 1978, dated 1980).

Series [1] relates to P. aeruginosa A15150. Nature of the series: MIC, serial two-fold agar dilution, Mueller-Hinton agar. Type of series: cell-based. To be noted: Pseudomonas aeruginosa. The procedure: (§1) Minimum inhibitory concentrations (MIC) of BB-P 652, BB-P 660 and BB-P 661 were determined by serial two-fold agar dilution method using Steer's apparatus on Mueller-Hinton agar plates against S. aureus (6 strains), cephalothinsensitive gram-negative (Gn-I, 13 strains), cephalothinresistant gram-negative (Gn-II, 6 strains) and Ps. aeruginosa (64 strains). The results are shown in Tables 1 and 2 along with piperacillin and carbenicillin.
Background: In agar dilution, organisms are placed on agar that contains the substance at set levels.

Series [2] has as its system S. aureus BX-1633. Described as above. Type of series: cell-based. Particulars: Staphylococcus aureus, BX1633. The procedure: as §1
For series [3], the system named is P. mirabilis A9900. Described as above. In kind it is cell-based. To be noted: Proteus mirabilis. The procedure: as §1
In series [4] the test system is K. pneumoniae A9977. The description is as above. Type of series: cell-based. To be noted: Klebsiella pneumoniae. The procedure: as §1
In series [5] the test system is P. aeruginosa A9843. The series is described as above. In kind it is cell-based. Particulars: Pseudomonas aeruginosa. The procedure: as §1
The test system of series [6] is E. coli Juhl. Described as above. In kind it is cell-based. To be noted: Escherichia coli. The procedure: as §1
The subject of series [7] is P. vulgaris A9539. The description is as above. In kind it is cell-based. Particulars: Proteus vulgaris. The procedure: as §1
The test system of series [8] is E. cloacae A9656. The description is as above. Type of series: cell-based. To be noted: Enterobacter cloacae. The procedure: as §1
Series [9] relates to S. aureus Smith. Described as above. To be noted: Staphylococcus aureus. Type of series: cell-based. The procedure: as §1
Series [10] can be described thus: Blood Level (im, 20mg/kg). Type of series: in vivo. To be noted: for half-life / Cmax: blood; for Cmax: read-out: Blood Level peak conc.
Series [11] has as its system S. aureus Smith. In words: PD50 (mice, im). In kind it is in vivo. Particulars: Staphylococcus aureus.
For series [12], the system named is P. aeruginosa. In words: MIC, serial two-fold agar dilution, Mueller-Hinton agar (third P. aeruginosa line, strain not given). In kind it is cell-based. To be noted: Pseudomonas aeruginosa. The procedure:
as §1

For series [13], the system named is Ps. aerug. A9843. Nature of the series: PD50 (mice, im). In kind it is in vivo. To be noted: for ED50: Mus musculus.
For series [14], the system named is E. coli Juhl. In words: PD50 (mice, im). In kind it is in vivo. To be noted: Escherichia coli.
Series [15] has as its system Gram-negative (Gn-I), cephalothin-sensitive, 13 strains. Nature of the series: Mean % relative activity to carbenicillin from geometric mean MIC. To be noted: for Mean % relative activity (carbenicillin = 100%): Gram-negative (Gn-I), 13 strains, from geometric mean of MIC. In kind it is cell-based. The procedure:
as §1

Series [16] concerns Ps. aeruginosa (64 strains). Described as above. In kind it is cell-based. To be noted: for Mean % relative activity (carbenicillin = 100%): Ps. aeruginosa, 64 strains, from geometric mean of MIC. The procedure: as §1
In series [17] the test system is Gram-negative (Gn-II), cephalothin-resistant, 6 strains. The series is described as above. In kind it is cell-based. To be noted: for Mean % relative activity (carbenicillin = 100%): Gram-negative (Gn-II), 6 strains, from geometric mean of MIC. The procedure:
as §1

The test system of series [18] is S. aureus (6 strains). The series is described as above. Particulars: from geometric mean of MIC. Type of series: cell-based. The procedure:
as §1

Series [19] relates to gram-negative bacteria. In words: In vitro gram-negative activity of the isomers (summary of MIC). In kind it is cell-based. To be noted: in words. The procedure: as §1
In series [20] the test system is gram-positive bacteria. In words: In vitro activity against gram-positive bacteria (summary of MIC). In kind it is cell-based. To be noted: in words. The procedure: as §1
The test system of series [21] is Pseudomonas. In words: Antipseudomonal activity of HPLC fractions. In kind it is cell-based. To be noted: fractions of preparative HPLC of crude BB-P661. The text has this:
The result is shown below:

[22] abbreviates: P. aeruginosa A9843, agar dilution, Mueller-Hinton agar, read-out: MIC.
Where [23] appears, read: E. coli Juhl, agar dilution, Mueller-Hinton agar, read-out: MIC.

≈ marks a conversion by molar mass, not a printed value. Where “and” joins values, the source holds several entries; their conditions need not be identical. Equal values may be shown once. Read-outs that look alike come from different tables or passages of the source.

As for `CCN1CCN(C(=O)N[C@@H](C(=O)N[C@@H]2C(=O)N3[C@@H]2SC(C)(C)[C@@H]3C(=O)O)c2ccccc2)C(=O)C1=O` [piperacillin, reference compound], the MIC was determined as 3.1 µg/mL (≈ 5.99 µM) in [1]; 3.1 µg/mL (≈ 5.99 µM) in [2]; 0.8 µg/mL (≈ 1.55 µM) in series [3]; 0.8 µg/mL (≈ 1.55 µM) in series [4]; 6.3 µg/mL (≈ 12.2 µM) in series [5] (setting [22]); 1.6 µg/mL (≈ 3.09 µM) in [6]. In addition, the MIC in series [7] worked out at 0.4 µg/mL (≈ 0.773 µM); in series [8] it was 1.6 µg/mL (≈ 3.09 µM); in series [9], 0.8 µg/mL (≈ 1.55 µM); in series [12], 25 µg/mL (≈ 48.3 µM). Also, the half-life was 29 min in [10] (im, 20 mg/kg) and 44 min in [10] (sc, 20 mg/kg, route: sc (footnote 2)). Besides, the Cmax in [10] (im, 20 mg/kg, im) turned out to be 4900 ng/mL. Also, the “Blood Level peak conc.” value in series [10] (im, listed as B-P 606, 20 mg/kg) is 6.2 µg/mL and 9 µg/mL. Moreover, the “Blood Level half life” value in series [10] (route: sc (footnote 2), listed as B-P 606, 20 mg/kg) is 30 min. Besides, the ED50 in series [11] was found to be 0.8 mg/kg; in series [13], 45 mg/kg; in series [14], 3.3 mg/kg. In addition, the PD50 in series [13] (listed as B-P 606) is 35 mg/kg and 25 mg/kg and 40 mg/kg. Also, the “Mean % relative activity (carbenicillin = 100%)” value (from here on “Mean % relative activity”) in series [15] turned out to be 360%; in series [16] it was 637%; in series [17] it was 224%; in series [18], 56%.

With `CCN1CCN(C(=O)N[C@H](C(=O)N[C@@H]2C(=O)N3[C@@H]2SC(C)(C)[C@@H]3C(=O)O)c2ccc(O)c(O)c2)C(=O)C1=O` [BB-P 660, Sodium 6-[L-α-(4-ethyl-2,3-dioxo-1-piperazinocarboxamido)-α-3,4-dihydroxyphenylacetamido]penicillanate], the MIC in series [1] was above 100 µg/mL; in series [2], 12.5 µg/mL; in series [3], 12.5 µg/mL; in [4], 0.8 µg/mL; in series [5] (setting [22]), above 100 µg/mL; in [6] (setting [23]), 6.3 µg/mL. Besides, the MIC was above 100 µg/mL in series [7], 12.5 µg/mL in [8], 6.3 µg/mL in series [9] and above 100 µg/mL in series [12]. The same molecule yielded a half-life in series [10] (im, 20 mg/kg) of 39 min. The Cmax in series [10] (im, 20 mg/kg, im) worked out at 4000 ng/mL. Besides, the “gram-negative activity, compared among the three isomers” value in series [19] is recorded as “considerably decreased activity”. Also, the ED50 in series [11] is 7.3 mg/kg; in [13], above 100 mg/kg; in [14], 7.2 mg/kg. Further, the “Mean % relative activity” value was 200% in series [15], 26% in [16], 6% in [17] and 22% in [18]. Besides, the “activity against gram-positive bacteria, compared with each other” value (shortened to “activity … compared with each other”) in series [20] is recorded as “almost as active as each other”. The “potency against gram-positive bacteria, compared with piperacillin” value (“potency … compared with piperacillin” for short) in series [20] is “less potent than piperacillin”.

With `CCN1CCN(C(=O)N[C@@H](C(=O)N[C@@H]2C(=O)N3[C@@H]2SC(C)(C)[C@@H]3C(=O)O)c2ccc(O)c(O)c2)C(=O)C1=O` [BB-P 661, Sodium 6-[D-α-(4-ethyl-2,3-dioxo-1-piperazinocarboxamido)-α-(3,4-dihydroxyphenyl)acetamido]penicillinate], the MIC in [1] is 12.5 µg/mL; in series [2], 12.5 µg/mL; in series [3], 0.4 µg/mL; in series [4], 0.025 µg/mL; in [5] (setting [22]), 0.8 µg/mL; in [6] (setting [23]) it was 0.4 µg/mL. Further, the MIC in series [7] amounted to 0.4 µg/mL; in series [8], 1.6 µg/mL; in series [9], 6.3 µg/mL; in series [12] it was 0.8 µg/mL. Also, the half-life in series [10] (im, 20 mg/kg) was 28 min. The Cmax in [10] (im, 20 mg/kg, im) is 4000 ng/mL. Besides, the “gram-negative activity, compared among the three isomers” value in series [19] was “the most active of the three isomers”. Moreover, the ED50 in [11] stood at 6.25 mg/kg; in series [13], 25 mg/kg; in [14], 1.8 mg/kg. Besides, in series [21], the antipseudomonal activity entry is reported as “exhibited antipseudomonal activity”. Further, the “Mean % relative activity” value is 3030% in [15], 418% in [16], 178% in [17] and 22% in series [18]. Also, in series [15] (versus piperacillin), the “times more active than piperacillin against cephalothin-sensitive gram-negative organisms” value was “about 8 times”. In addition, the “activity compared with piperacillin against Pseudomonas” value in series [16] (in words) was “slightly less active”. Also, the “activity compared with piperacillin against cephalothin-resistant strains” value in series [17] (in words) was “slightly less active”. The “activity … compared with each other” value in [20] is reported as “almost as active as each other”. Besides, in series [20], the “potency … compared with piperacillin” value was “less potent than piperacillin”.

On to `CCN1CCN(C(=O)NC(C(=O)N[C@@H]2C(=O)N3[C@@H]2SC(C)(C)[C@@H]3C(=O)O)c2ccc(O)c(O)c2)C(=O)C1=O` (mixture of isomers) [BB-P 652, Sodium 6-[DL-α-(4-ethyl-2,3-dioxo-1-piperazinocarboxamido)-α-3,4-dihydroxyphenylacetamido]penicillanate], for which the minimum inhibitory concentration (MIC) in [1] was found to be 50 µg/mL; in series [2] it was 12.5 µg/mL; in series [3] it was 0.8 µg/mL; in [4], 0.05 µg/mL; in [5] (A9843), 3.1 µg/mL; in series [6] (setting [23]) it was 0.8 µg/mL. In addition, the MIC in [7] was determined as 0.8 µg/mL; in series [8] it was 1.6 µg/mL; in series [9], 6.3 µg/mL; in [12], 6.3 µg/mL. Further, the half-life in series [10] (im, 20 mg/kg) was determined as 32 min. Further, the Cmax in [10] (im, 20 mg/kg, im) was determined as 8300 ng/mL. For the same molecule, in series [10] (im, 20 mg/kg), the “Blood Level half life” value amounted to 39 min. For the same molecule, the “Blood Level peak conc.” value in series [10] (im, 20 mg/kg) was 4.5 µg/mL. Further, the ED50 in [11] stood at 4.5 mg/kg; in [13] it was 30 mg/kg; in series [14] it was 1.8 mg/kg. Further, the “Mean % relative activity” value in series [15] worked out at 1780%; in series [16], 271%; in [17], 112%; in series [18], 25%. In series [20], the “activity … compared with each other” value is reported as “almost as active as each other”. Besides, in [20], the “potency … compared with piperacillin” value is “less potent than piperacillin”.

For `CC1(C)S[C@@H]2[C@H](NC(=O)C(C(=O)O)c3ccccc3)C(=O)N2[C@H]1C(=O)O` (some centres unmarked) [carbenicillin, reference compound], the MIC was determined as 25 µg/mL (≈ 66.1 µM) in series [1]; 3.1 µg/mL (≈ 8.19 µM) in series [2]; 0.8 µg/mL (≈ 2.11 µM) in series [3]; 1.6 µg/mL (≈ 4.23 µM) in series [4]; 100 µg/mL (≈ 264 µM) in series [5] (setting [22]); 3.1 µg/mL (≈ 8.19 µM) in series [6] (setting [23]). The minimal inhibitory concentration (MIC) is 1.6 µg/mL (≈ 4.23 µM) in [7], 1.6 µg/mL (≈ 4.23 µM) in series [8], 0.2 µg/mL (≈ 0.529 µM) in series [9] and above 100 µg/mL in series [12].

For orientation: MIC means the least concentration at which growth counts as inhibited. Usually half-life stands for how long it takes for the measured level to halve. Read a low half-life as rapid decline. What is called ED50 is the dose that gives a 50% effect, or the effect in half of the subjects. Read a low ED50 as greater potency.
